Measurements published in ChEMBL document CHEMBL5137065, “Recent Advances with KDM4 Inhibitors and Potential Applications” (J Med Chem, 2022).

Assays:
[1] = target: T1, Lysine-specific demethylase 4A (Homo sapiens, UniProt O75164)
T1 sequence (O75164 whole entry): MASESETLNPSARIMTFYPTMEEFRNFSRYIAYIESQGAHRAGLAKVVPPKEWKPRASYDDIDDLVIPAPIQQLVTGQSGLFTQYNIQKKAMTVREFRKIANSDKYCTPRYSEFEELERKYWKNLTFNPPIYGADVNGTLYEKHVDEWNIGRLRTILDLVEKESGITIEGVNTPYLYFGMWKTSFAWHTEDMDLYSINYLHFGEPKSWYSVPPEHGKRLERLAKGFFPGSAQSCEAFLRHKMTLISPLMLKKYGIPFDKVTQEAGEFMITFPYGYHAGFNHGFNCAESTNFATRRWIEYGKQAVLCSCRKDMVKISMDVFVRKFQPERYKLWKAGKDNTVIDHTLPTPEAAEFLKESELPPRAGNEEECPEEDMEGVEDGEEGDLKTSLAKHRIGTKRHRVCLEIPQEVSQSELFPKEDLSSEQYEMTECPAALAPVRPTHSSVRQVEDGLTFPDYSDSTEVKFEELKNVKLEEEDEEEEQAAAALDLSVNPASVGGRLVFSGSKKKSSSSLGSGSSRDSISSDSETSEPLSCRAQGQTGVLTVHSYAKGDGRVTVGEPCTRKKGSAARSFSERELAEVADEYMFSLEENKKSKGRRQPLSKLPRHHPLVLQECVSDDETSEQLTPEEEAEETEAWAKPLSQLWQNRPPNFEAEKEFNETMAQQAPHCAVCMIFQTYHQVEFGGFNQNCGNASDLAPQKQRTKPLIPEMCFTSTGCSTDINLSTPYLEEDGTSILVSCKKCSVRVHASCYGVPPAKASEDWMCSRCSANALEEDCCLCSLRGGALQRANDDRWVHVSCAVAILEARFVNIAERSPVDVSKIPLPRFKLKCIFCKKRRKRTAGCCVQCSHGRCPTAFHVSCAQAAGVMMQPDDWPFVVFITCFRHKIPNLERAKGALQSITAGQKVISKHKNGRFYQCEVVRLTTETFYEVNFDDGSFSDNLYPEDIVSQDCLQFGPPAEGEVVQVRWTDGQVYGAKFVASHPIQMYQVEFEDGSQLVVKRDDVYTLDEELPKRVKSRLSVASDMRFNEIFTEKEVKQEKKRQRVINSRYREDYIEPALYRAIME

[2] = target: T2, Lysine-specific demethylase 4C (Homo sapiens, UniProt Q9H3R0); test: Inhibition of human KDM4C (1 to 347 residues) catalytic domain measured formaldehyde dehydrogenase (FDH)-coupled fluorescence assay
T2 sequence (Q9H3R0 whole entry): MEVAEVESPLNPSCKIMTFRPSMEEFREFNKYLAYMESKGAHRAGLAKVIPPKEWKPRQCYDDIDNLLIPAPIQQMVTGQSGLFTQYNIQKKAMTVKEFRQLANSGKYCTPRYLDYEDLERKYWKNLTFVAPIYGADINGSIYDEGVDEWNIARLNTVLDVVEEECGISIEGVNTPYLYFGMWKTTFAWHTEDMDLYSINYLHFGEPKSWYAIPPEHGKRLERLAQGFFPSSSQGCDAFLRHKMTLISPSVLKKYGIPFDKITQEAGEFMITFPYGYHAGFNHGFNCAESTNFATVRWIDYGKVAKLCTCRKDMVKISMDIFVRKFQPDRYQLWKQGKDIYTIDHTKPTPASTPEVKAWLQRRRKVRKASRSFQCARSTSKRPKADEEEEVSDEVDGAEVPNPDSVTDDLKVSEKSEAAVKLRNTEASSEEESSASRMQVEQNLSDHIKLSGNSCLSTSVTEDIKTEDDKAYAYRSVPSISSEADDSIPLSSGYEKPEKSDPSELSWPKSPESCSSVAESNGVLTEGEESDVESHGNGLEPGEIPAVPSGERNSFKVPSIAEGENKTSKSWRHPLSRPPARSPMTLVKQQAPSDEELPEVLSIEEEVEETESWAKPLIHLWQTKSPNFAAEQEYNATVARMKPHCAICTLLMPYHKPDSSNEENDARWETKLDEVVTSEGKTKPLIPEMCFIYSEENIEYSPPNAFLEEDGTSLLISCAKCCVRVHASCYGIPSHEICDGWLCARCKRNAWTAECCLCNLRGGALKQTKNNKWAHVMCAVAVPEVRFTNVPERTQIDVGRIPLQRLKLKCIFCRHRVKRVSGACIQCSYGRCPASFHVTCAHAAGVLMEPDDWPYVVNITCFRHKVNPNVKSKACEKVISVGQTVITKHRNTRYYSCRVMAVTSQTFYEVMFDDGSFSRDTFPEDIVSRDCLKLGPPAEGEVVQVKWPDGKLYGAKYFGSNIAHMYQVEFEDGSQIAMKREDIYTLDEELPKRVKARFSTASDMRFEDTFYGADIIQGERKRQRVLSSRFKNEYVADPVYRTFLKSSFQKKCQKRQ

For `COC(=O)Cc1cc(O)n(-c2nc3ccccc3[nH]2)n1`, the IC50 [1] was 4 µM and the IC50 [2] was 4 µM.
